pIC50, pKi: −log10 of the molar value. Converted amounts (≈) assume the structure as drawn.
Experiments:
[1] = bovine, serum; cited from earlier work
[2] = system: 60 human cancer cell lines; experiment: cells; assay type: cell-based; conditions: Homo sapiens; for GI50: mean over NCI 60 cell panel, 48 h drug exposure; for CC50: 60 cell, 48 h, read-out: mean LC50
Description: (§1) Compounds were tested for in vitro activity (48 h drug exposure) across 60 human cancer cell lines through the National Cancer Institute (NCI) Developmental Therapies Screening Program (Boyd et al., 1995).

[3] = system: A549 lung adenocarcinoma; experiment: Growth inhibitory assay (MTT, 72 hr); assay type: cell-based; conditions: Homo sapiens, 72 hr exposure
Description: (§2) Compounds were prepared as 10 mM top stocks, dissolved in DMSO, and stored at 4° C., protected from light, for a maximum period of 4 weeks. Human derived cell lines (HCT 116, HT29 colon carcinoma; MCF-7 (ER+), MDA 468 (ER−) breast carcinoma; A549 lung adenocarcinoma) were routinely cultivated at 37° C. in an atmosphere of 5% CO2 in RPMI 1640 medium supplemented with 2 mM L-glutamine and 10% fetal calf serum and subcultured twice weekly to maintain continuous logarithmic growth. Cells were seeded into 96-well microtiter plates at a density of 5×10^3 per well and allowed 24 hr to adhere before drugs were introduced (final concentration 0.1 nM–100 μM, n=8). Serial drug dilutions were prepared in medium immediately prior to each assay. At the time of drug addition and following 72 hr exposure, MTT was added to each well (final concentration 400 µg/mL). Incubation at 37° C. for 4 hr allowed reduction of MTT by mitochondrial dehydrogenase to an insoluble formazan product. Well contents were aspirated and formazan solubilized by addition of DMSO:glycine buffer (pH 10.5) (4:1). Absorbance was measured using an Anthos Labtec systems plate reader at 550 nm, and used as a measure of cell viability; thus cell growth or drug toxicity was determined.

[4] = system: HCT 116 colon carcinoma; experiment: Growth inhibitory assay (MTT, 72 hr); assay type: cell-based; conditions: Homo sapiens, 72 hr exposure
Description: as §2

[5] = system: HT29 colon carcinoma; experiment: Growth inhibitory assay (MTT, 72 hr); assay type: cell-based; conditions: Homo sapiens, HT-29, 72 hr exposure
Description: as §2

[6] = system: Mycobacterium tuberculosis H37Rv (ATCC 27294); experiment: Microplate Alamar Blue Assay (MABA), TAACF primary screening; assay type: cell-based; conditions: lowest concentration effecting a reduction in fluorescence of 90% relative to controls
Excerpt: Compounds were submitted to the Tuberculosis Antimicrobial Acquisition and Coordinating Facility (TAACF) for testing as antimycobacterial drugs.
Compounds were subjected to in vitro evaluation for antimycobacterial activity.
See, for example, Collins et al., 1997.

[7] = system: colon sub-panel; experiment: cells; assay type: cell-based; conditions: Homo sapiens, SW-620, read-out: mean LC50 in colon sub-panel
Description: as §1

[8] = system: renal sub-panel; experiment: cells; assay type: cell-based; conditions: Homo sapiens, 60 cell, read-out: mean LC50 in renal sub-panel
Description: as §1

[9] = system: MCF-7 (ER+) breast carcinoma; experiment: Growth inhibitory assay (MTT, 72 hr); assay type: cell-based; conditions: Homo sapiens, MCF7, 72 hr exposure
Description: as §2

[10] = system: MDA 468 (ER−) breast carcinoma; experiment: Growth inhibitory assay (MTT, 72 hr); assay type: cell-based; conditions: Homo sapiens, 72 hr exposure
Description: as §2

[11] = target: thioredoxin (Homo sapiens, UniProt P10599); conditions: irreversible inhibitor of thioredoxin; cited from earlier work
Chain of thioredoxin (P10599 whole entry): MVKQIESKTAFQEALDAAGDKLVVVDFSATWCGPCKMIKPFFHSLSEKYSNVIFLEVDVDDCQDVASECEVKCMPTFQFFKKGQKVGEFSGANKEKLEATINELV

| SMILES | half-life [1] | GI50 [2] | pIC50 [3] | pIC50 [4] | pIC50 [5] | MIC [6] | melting point | CC50 [2] | LC50 [7] | mean LC50 [8] | pIC50 [9] | pIC50 [10] | pKi [11] |
| --- | --- | --- | --- | --- | --- | --- | --- | --- | --- | --- | --- | --- | --- |
| O=CN/C=C/c1cc(O)ccc1O [erbstatin] | < 30 min |  |  |  |  |  |  |  |  |  |  |  |  |
| O=C1C=CC(O)(c2cc3ccccc3[nH]2)C=C1 [Q03, 4-(Indol-2-yl)-4-hydroxy-2,5-cyclohexadien-1-one] |  | 1410 nM | 5.21 | 5.55 | 5.75 | 3.13 µg/mL (≈ 13.9 µM) | 133 °C |  |  |  |  |  |  |
| O=C1C=CC(O)(c2nc3ccccc3o2)C=C1 [Q04, 4-(Benzoxazol-2-yl)-4-hydroxy-2,5-cyclohexadien-1-one] |  | 460 nM | 5.63 | 6.74 | 6.54 | 1.56 µg/mL (≈ 6.87 µM) |  | 7080 nM | 1130 nM | 1640 nM | 6.41 | 6.46 |  |
| CN(C)CC1CCC(CN(C)C)C1=O (centres unmarked) [NSC-131233, 2,5-bis[(dimethylamino)methyl]cyclopentanone] |  |  |  |  |  |  |  |  |  |  |  |  | 6.00 |
| O=C1C=CC(O)(c2cc3ccccc3o2)C=C1 [Q01, 4-(Benzofuran-2-yl)-4-hydroxy-2,5-cyclohexadien-1-one] |  | 520 nM | 5.64 | 6.80 | 6.38 | 1.56 µg/mL (≈ 6.9 µM) |  | 7240 nM | 3660 nM | 2400 nM |  |  |  |
